Measured values taken from patent US11434248B2, “PDE9 inhibitor and use thereof” (Nanjing TransThera Biosciences Co. Ltd., priority 2017, dated 2022).
Read-outs that look alike come from different tables or passages of the source.

What was measured:
[1] = human
[2] = Rat pharmacokinetic evaluation; format: in vivo, SD male rats; details: SD rat; for tz1/2 po (terminal elimination half-life): intragastric 5.0 mg/kg; for tz1/2 iv (terminal elimination half-life): intravenous bolus 1 mg/kg
Method: Experimental Example 4: Rat Pharmacokinetic Evaluation of the Compounds of the Invention
Aim: The in vivo pharmacokinetic parameters of the compounds in SD male rats (purchased from Beijing Vital River Animal Technology Co., Ltd.) were evaluated and bioavailability of the compounds was examined.
Animal Administration and Sample Collection:
The solution of compounds 65, 90, 107, 158 was intragastrically administered to SD rat at a dose of 5.0 mg/kg.
The experimental compound 76 was dissolved in 30% DMF+30% PEG400+40% saline to prepare a solution. The solution of compound 76 was intragastrically administered to SD rat at a dose of 5.0 mg/kg.
The experimental compound 76 was dissolved in 30% DMF+30% PEG400+40% saline to prepare a solution.
The experimental compounds 84 and 96 were dissolved in 5% DMSO+10% PEG400+85% (28% HP-β-CD) saline to prepare a solution. The solution of compounds 84 and 96 was intragastrically administered to SD rat at a dose of 5.0 mg/kg.
The experimental compounds 84 and 96 were dissolved in 5% DMSO+10% PEG400+85% (28% HP-β-CD) saline to prepare a solution.
The animals were fixed. The tail was heated with a water bath at 10 min before each time point. About 100 μL of blood from tail vein was collected, and then placed in an anti-coagulation tube containing EDTA-K2 after collection. Blood samples were centrifuged at 8000 rpm at 4° C. for 6 min to obtain plasma samples.
The concentration of test sample was output using Analyst 1.6.1 from AB SCIEX.

[3] = Stability in human liver microsome
[4] = Canine pharmacokinetic evaluation; details: Beagle dogs, n = 3; for F %: dose iv/po 1/2 mg/kg; for AUCinf po / tz1/2 po (terminal elimination half-life): intragastric 2.0 mg/kg; for AUCinf iv / Cl_obs iv (clearance rate) / tz1/2 iv (terminal elimination half-life): intravenous bolus 1 mg/kg
[5] = biological target: human PDE9 (Homo sapiens (Human), UniProt O76083); details: background statement on conventional PDE inhibitors; cited from earlier work
[6] = human liver microsome 0.5 mg protein/mL, compound 1 μM, 37° C.

Chain of human PDE9 (O76083 whole entry): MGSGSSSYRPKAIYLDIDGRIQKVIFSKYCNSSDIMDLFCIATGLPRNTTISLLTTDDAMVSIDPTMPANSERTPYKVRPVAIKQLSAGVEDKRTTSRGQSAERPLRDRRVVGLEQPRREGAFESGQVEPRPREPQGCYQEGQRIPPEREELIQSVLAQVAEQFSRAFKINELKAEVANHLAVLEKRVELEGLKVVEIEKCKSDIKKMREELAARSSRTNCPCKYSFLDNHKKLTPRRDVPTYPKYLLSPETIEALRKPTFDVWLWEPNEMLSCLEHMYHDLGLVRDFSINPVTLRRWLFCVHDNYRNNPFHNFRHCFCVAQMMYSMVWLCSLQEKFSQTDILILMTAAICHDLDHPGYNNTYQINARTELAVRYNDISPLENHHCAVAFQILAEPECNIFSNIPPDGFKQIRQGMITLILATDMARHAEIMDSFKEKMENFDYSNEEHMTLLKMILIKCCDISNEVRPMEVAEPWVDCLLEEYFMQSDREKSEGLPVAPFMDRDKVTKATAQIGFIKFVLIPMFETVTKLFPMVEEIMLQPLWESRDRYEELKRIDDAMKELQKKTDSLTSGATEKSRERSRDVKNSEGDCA

Q: Which k [1] does the source give for `N#Cc1c(N2CCC3(CC2)CC3)c2cc(C(O)C3CC3)ncc2[nH]c1=O` (centres unmarked) [Compound 90, 6-(cyclopropyl (hydroxy)methyl)-2-oxo-4-(6-azaspiro[2.5]octane-6-yl)-1,2-dihydro-1,7-naphthyridin-3-carbonitrile] here?
A: The k was 0.0037 min⁻¹.

Q: And the “tz1/2 po (terminal elimination half-life)” value (shortened to “tz1/2 po”) [2]?
A: Its value is 4.49 h.

Q: What about the “tz1/2 iv (terminal elimination half-life)” value (“tz1/2 iv” below) [2] of the same compound?
A: The value was 1.48 h.

Q: Which k [3, 6] does the source give for `COC1(C)CCN(c2c(C#N)c(=O)[nH]c3cnc(C(C)(C)O)cc23)CC1` [Compound 109, 6-(2-hydroxypropan-2-yl)-4-(4-methoxy-4-methylpiperidin-1-yl)-2-oxo-1,2-dihydro-1,7-naphthyridine-3-carbonitrile] here?
A: Its k is 0.4444 min⁻¹.

Q: For `N#Cc1c(N2CCCCCC2)c2ccccc2[nH]c1=O` [Compound I-8, reference compound], which CLint [3, 6] is on record?
A: The CLint was 0.1244 mL · min^−1 · mg^−1 proteins.

Q: And the k [3, 6]?
A: Its k is 0.727 min⁻¹.

Q: And the “Original drug residual % at 60 min” value ([3]; human liver microsome 0.5 mg protein/mL, compound 1 μM, β-NADPH 1 mM, 37° C., 60 min)?
A: The value was 5.19%.

Q: And the half-life at 1 μM ([3]; human, liver microsomes)?
A: The half-life at 1 μM was 0.186 h.

Q: Which k [1] does the source give for `CC(C)(O)c1cc2c(N3CCC4(CCC4)CC3)c(C#N)c(=O)[nH]c2cn1` [Compound 82, 6-(2-hydroxypropan-2-yl)-2-oxo-4-(7-azaspiro[3.5]nonane-7-yl)-1,2-dihydro-1,7-naphthyridin-3-carbonitrile] here?
A: Its k is 0.9760 min⁻¹.

Q: With `N#Cc1c(N2CC[C@@H](n3cccn3)C2)c2ccncc2[nH]c1=O` [Compound 19, (R)-4-(3-(1H-pyrazol-1-yl)pyrrolidin-1-yl)-2-oxo-1,2-dihydro-1,7-naphthyridin-3-carbonitrile] as the compound, how does the k [3, 6] read?
A: Its k is 0.191 min⁻¹.

Q: Which T½ [3, 6] does the source give for `COc1cc2c(N3CCC4(CCC4)CC3)c(C#N)c(=O)[nH]c2cn1` [Compound 66, 6-methoxy-2-oxo-4-(7-azaspiro[3.5]nonane-7-yl)-1,2-dihydro-1,7-naphthyridin-3-carbonitrile] here?
A: Its T½ is “→^”.

Q: What about the k [3, 6] of the same compound?
A: The k was -0.515 min⁻¹.

Q: What does the source list for `Cc1cc2c(N3CCC4(CCC4)CC3)c(C#N)c(=O)[nH]c2cn1` [Compound 65, 6-methyl-2-oxo-4-(7-azaspiro[3.5]nonane-7-yl)-1,2-dihydro-1,7-naphthyridin-3-carbonitrile]?
A: tz1/2 po (terminal elimination half-life) [2]: 2.25 h; tz1/2 iv (terminal elimination half-life) [2]: 1.47 h; F % [4]: 25.5%; AUCinf po [4]: 543 ng·h/mL; tz1/2 po (terminal elimination half-life) [4]: 0.47 h; AUCinf iv [4]: 1065 ng·h/mL; Cl_obs iv (clearance rate) [4]: 15.7 mL/min/kg; tz1/2 iv (terminal elimination half-life) [4]: 0.49 h

Q: With `CC(=O)Nc1ccc(-c2c[nH]c(=O)cn2)cc1` [SKF94120] as the compound, how does the “inhibition activity on PDE9” value [5] read?
A: Its value is “no or very low inhibition activity”.

Q: For `CNC(=O)c1cc2c(N3CCC4(CC3)CC4)c(C#N)c(=O)[nH]c2cn1` [Compound 96, 3-cyano-N-methyl-2-oxo-4-(6-azaspiro[2.5]octane-6-yl)-1,2-dihydro-1,7-naphthyridin-6-formamide], which “tz1/2 iv” value [2] is on record?
A: The value was 0.30 h⁻¹.

Q: For `CCc1cc2c(N3CCC4(CC3)CC4)c(C#N)c(=O)[nH]c2cn1` [Compound 76, 6-ethyl-2-oxo-4-(6-azaspiro[2.5]octane-6-yl)-1,2-dihydro-1,7-naphthyridin-3-carbonitrile], which k [1] is on record?
A: Its k is 0.0015 min⁻¹.

Q: What about the “tz1/2 po” value [2] of the same compound?
A: The value was 9.60 h.

Q: What about the “tz1/2 iv” value [2] of the same compound?
A: Its value is 0.89 h.

Q: Which “inhibition activity on PDE9” value [5] does the source give for `CCOC(=O)C1=C[C@]2(CC)CCCN3CCc4c(n1c1ccccc41)[C@@H]32` [vinpocetine] here?
A: The value was “no or very low inhibition activity”.

Q: For `CC(C)Cn1c(=O)n(C)c(=O)c2[nH]cnc21` [IBMX], which “inhibition activity on PDE9” value [5] is on record?
A: The value was “no or very low inhibition activity”.

Q: For `CC(C)(O)c1cc2c(N3CCC4(CC3)CC4)c(C#N)c(=O)[nH]c2cn1` [Compound 84, 6-(2-hydroxypropan-2-yl)-2-oxo-4-(6-azaspiro[2.5]octane-6-yl)-1,2-dihydro-1,7-naphthyridin-3-carbonitrile], which “tz1/2 po” value [2] is on record?
A: The value was 3.24 h.

Q: What about the “tz1/2 iv” value [2] of the same compound?
A: The value was 1.89 h.

Q: Which k [1] does the source give for `N#Cc1c(N2CCC3(CCC3)CC2)c2cc(N3CC(O)C3)ncc2[nH]c1=O` [Compound 51, 6-(3-hydroxyazetidin-1-yl)-2-oxo-4-(7-azaspiro[3.5]nonane-7-yl)-1,2-dihydro-1,7-naphthyridin-3-carbonitrile] here?
A: Its k is 0.9418 min⁻¹.

Q: Which k [3, 6] does the source give for `CCc1cc2c(N3CCC(C)(OC)CC3)c(C#N)c(=O)[nH]c2cn1` [Compound 107, 6-ethyl-4-(4-methoxy-4-methylpiperidin-1-yl)-2-oxo-1,2-dihydro-1,7-naphthyridin-3-carbonitrile] here?
A: Its k is 0.0023 min⁻¹.

Q: With `N#Cc1c(N2CCC3(CC2)CC3)c2cc(C(O)CO)ncc2[nH]c1=O` (centres unmarked) [Compound 32, 6-(1,2-dihydroxyethyl)-2-oxo-4-(6-azaspiro[2.5]octane-6-yl)-1,2-dihydro-1,7-naphthyridin-3-carbonitrile] as the compound, how does the T½ [3, 6] read?
A: Its T½ is “→∞”.

Q: What about the k [3, 6] of the same compound?
A: The k was -0.3760 min⁻¹.

Q: For `COC1(C)CCN(c2c(C#N)c(=O)[nH]c3cnccc23)CC1` [Compound 81, 4-(4-methoxy-4-methylpiperidin-1-yl)-2-oxo-1,2-dihydro-1,7-naphthyridin-3-carbonitrile], which k [3, 6] is on record?
A: Its k is 0.0012 min⁻¹.

Q: For `COCCOc1cc2c(N3CCC(C)(OC)CC3)c(C#N)c(=O)[nH]c2cn1` [Compound 145, 4-(4-methoxy-4-methylpiperidin-1-yl)-6-(2-methoxyethoxy)-2-oxo-1,2-dihydro-1,7-naphthyridin-3-carbonitrile], which k [3, 6] is on record?
A: Its k is 0.0019 min⁻¹.

Q: With `N#Cc1c(N2CCC3(CC2)CC3)c2ncccc2[nH]c1=O` [Compound 80, 2-oxo-4-(6-azaspiro[2.5]octane-6-yl)-1,2-dihydro-1,5-naphthyridin-3-carbonitrile] as the compound, how does the k [1] read?
A: Its k is 0.9877 min⁻¹.

Q: With `COc1ccc(C2CNC(=O)C2)cc1OC1CCCC1` (centres unmarked) [rolipram] as the compound, how does the “inhibition activity on PDE9” value [5] read?
A: Its value is “no or very low inhibition activity”.

Q: For `OCCN(CCO)c1nc(N2CCCCC2)c2nc(N(CCO)CCO)nc(N3CCCCC3)c2n1` [dipyridamole], which “inhibition activity on PDE9” value [5] is on record?
A: The value was “no or very low inhibition activity”.

Q: For `N#Cc1c(N2CCC3(CC2)CC3)c2cc(C(=O)O)ncc2[nH]c1=O` [Compound 83, 3-cyano-2-oxo-4-(6-azaspiro[2.5]octane-6-yl)-1,2-dihydro-1,7-naphthyridin-6-carboxylic acid], which T½ [3, 6] is on record?
A: Its T½ is “→∞”.

Q: And the k [3, 6]?
A: The k was 0.5421 min⁻¹.

Q: Which results are given for `N#Cc1c(N2CCC3(CC2)CC3)c2ccncc2[nH]c1=O` [Compound 25, 2-oxo-4-(6-azaspiro[2.5]octane-6-yl)-1,2-dihydro-1,7-naphthyridin-3-carbonitrile]?
A: k [1]: 0.0022 min⁻¹; tz1/2 po (terminal elimination half-life) [2]: 1.40 h; tz1/2 iv (terminal elimination half-life) [2]: 0.51 h; F % [4]: 99.1%; AUCinf po [4]: 4449 ng·h/mL; tz1/2 po (terminal elimination half-life) [4]: 9.45 h; AUCinf iv [4]: 2244 ng·h/mL; Cl_obs iv (clearance rate) [4]: 7.83 mL/min/kg; tz1/2 iv (terminal elimination half-life) [4]: 10.4 h

Q: With `N#Cc1c(N2CCC3(CCC3)CC2)c2cc(N3CC(N)C3)ncc2[nH]c1=O` [Compound 53, 6-(3-aminoazetidin-1-yl)-2-oxo-4-(7-azaspiro[3.5]nonane-7-yl)-1,2-dihydro-1,7-naphthyridin-3-carbonitrile] as the compound, how does the k [1] read?
A: Its k is 0.4821 min⁻¹.
